Test results published in US20210196720A1 (UROVANT SCIENCES GMBH, priority 2018, published 2021).
Like-named read-outs stand apart in the source and are kept apart here.

How the values were obtained:
[1] = Human plasma protein binding; type: in vitro ADME
[2] = Capsule vs tablet single-dose crossover PK, 150 mg, healthy males; type: in vivo; details: male, human, plasma, oral
Source text: Tmax and the apparent terminal t1/2 were also similar between the two formulations.

[3] = Single rising oral dose Phase 1 PK, healthy adults (young males unless stated); type: in vivo, human; details: human, plasma, oral; for AUC(0-t): read-out: AUC0-24; for half-life: read-out: t1/2 (converted)
Protocol: The steady state AUC geometric mean accumulation ratios were ˜2 in young male subjects and ˜2.8 in elderly subjects (male and female).
All subjects were healthy adults. […] Systemic exposures were greater than dose proportional up to 600 mg.
Although exposures were similar in middle-aged males when compared to young males, plasma concentrations were higher in elderly compared to middle-aged and young subjects. […] Furthermore, the steady state AUC geometric mean accumulation ratios were ˜2 in young males and ˜2.8 in the elderly.

[4] = both sexes, 50 mg, single 50 mg, elderly male and female
[5] = male, 10 mg, single 10 mg, Japanese
[6] = male, 50 mg, single 50 mg, Japanese, fasted
[7] = male, 50 mg, single 50 mg, fasted
[8] = male, 100 mg, single 100 mg, Japanese
[9] = male, 200 mg, single 200 mg, Japanese
[10] = male, 300 mg, single 300 mg, Japanese

Structure (SMILES): O=C(Nc1ccc(C[C@@H]2CC[C@H]([C@H](O)c3ccccc3)N2)cc1)[C@@H]1CCc2nccc(=O)n21 [Vibegron, (6S)-N-[4-[[(2S,5R)-5-[(R)-hydroxy(phenyl)methyl]pyrrolidin-2-yl]methyl]phenyl]-4-oxo-7,8-dihydro-6H-pyrrolo[1,2-a]pyrimidine-6-carboxamide]
- bound to human plasma proteins [1]: approximately 49%
- unbound in human plasma [1]: 49%
- AUC(0-inf) ([2]; 1 × 150 mg capsule): 2840 ng·h/mL
- Cmax ([2]; 1 × 150 mg capsule): 237 ng/mL
- AUC(0-inf) ([2]; 3 × 50 mg tablets): 2660 ng·h/mL
- Cmax ([2]; 3 × 50 mg tablets): 213 ng/mL
- AUC(0-inf) [3, 4]: 951 ± 300 ng·h/mL
- Cmax [3, 4]: 50.2 ± 23.6 ng/mL
- AUC(0-t) [3, 4]: 314 ± 119 ng·h/mL
- half-life [3, 4]: 92 h
- Cmax ([3]; male, 2 mg, single 2 mg): 0.28 ± 0.02 ng/mL
- AUC(0-t) ([3]; male, 2 mg, single 2 mg): 0.8 ± 0.33 ng·h/mL
- Cmax ([3]; male, 5 mg, single 5 mg): 0.79 ± 0.3 ng/mL
- AUC(0-t) ([3]; male, 5 mg, single 5 mg): 8.31 ± 4.8 ng·h/mL
- AUC(0-inf) ([3]; male, 10 mg, single 10 mg): 70.7 ± 34.9 ng·h/mL
- Cmax ([3]; male, 10 mg, single 10 mg): 4.76 ± 4.58 ng/mL
- AUC(0-inf) [3, 5]: 98.7 ± 27.3 ng·h/mL
- Cmax [3, 5]: 3.34 ± 1.97 ng/mL
- AUC(0-t) [3, 5]: 31 ± 9.33 ng·h/mL
- half-life [3, 5]: 57.6 ± 39 h
- AUC(0-t) ([3]; male, 10 mg, single 10 mg): 30 ± 12.6 ng·h/mL
- half-life ([3]; male, 10 mg, single 10 mg): 43.2 ± 13 h
- AUC(0-inf) ([3]; male, 20 mg, single 20 mg): 121 ± 48.9 ng·h/mL
- Cmax ([3]; male, 20 mg, single 20 mg): 5.25 ± 4.25 ng/mL
- AUC(0-t) ([3]; male, 20 mg, single 20 mg): 40 ± 21.1 ng·h/mL
- half-life ([3]; male, 20 mg, single 20 mg): 64.2 ± 12.6 h
- AUC(0-inf) [3, 6]: 885 ± 241 ng·h/mL
- Cmax [3, 6]: 62.2 ± 20.4 ng/mL
- AUC(0-t) [3, 6]: 385 ± 136 ng·h/mL
- half-life ([3]; male, 50 mg, single 50 mg, Japanese): 64.4 ± 8.7 h
- AUC(0-inf) [3, 7]: 551 ± 262 ng·h/mL
- Cmax [3, 7]: 31.7 ± 35 ng/mL
- AUC(0-t) [3, 7]: 219 ± 123 ng·h/mL
- half-life ([3]; male, 50 mg, single 50 mg): 52 h
- AUC(0-inf) ([3]; male, 100 mg, single 100 mg): 1890 ± 698 ng·h/mL
- Cmax ([3]; male, 100 mg, single 100 mg): 142 ± 108 ng/mL
- AUC(0-inf) [3, 8]: 1770 ± 418 ng·h/mL
- Cmax [3, 8]: 190 ± 123 ng/mL
- AUC(0-t) [3, 8]: 920 ± 300 ng·h/mL
- half-life [3, 8]: 57.6 ± 12 h
- AUC(0-t) ([3]; male, 100 mg, single 100 mg): 845 ± 401 ng·h/mL
- half-life ([3]; male, 100 mg, single 100 mg): 72.8 ± 10.8 h
- AUC(0-inf) ([3]; male, 150 mg, single 150 mg): 2270 ± 911 ng·h/mL
- Cmax ([3]; male, 150 mg, single 150 mg): 195 ± 185 ng/mL
- AUC(0-t) ([3]; male, 150 mg, single 150 mg): 1050 ± 551 ng·h/mL
- half-life ([3]; male, 150 mg, single 150 mg): 60.5 ± 10.5 h
- AUC(0-inf) ([3]; male, 200 mg, single 200 mg): 3630 ± 1110 ng·h/mL
- Cmax ([3]; male, 200 mg, single 200 mg): 274 ± 138 ng/mL
- AUC(0-inf) [3, 9]: 5200 ± 791 ng·h/mL
- Cmax [3, 9]: 516 ± 200 ng/mL
- AUC(0-t) [3, 9]: 3090 ± 569 ng·h/mL
- half-life [3, 9]: 58.4 ± 9 h
- AUC(0-t) ([3]; male, 200 mg, single 200 mg): 1740 ± 748 ng·h/mL
- half-life ([3]; male, 200 mg, single 200 mg): 75.3 ± 9.1 h
- AUC(0-inf) ([3]; male, 300 mg, single 300 mg): 7380 ± 1410 ng·h/mL
- Cmax ([3]; male, 300 mg, single 300 mg): 618 ± 231 ng/mL
- AUC(0-inf) [3, 10]: 6270 ± 1570 ng·h/mL
- Cmax [3, 10]: 733 ± 210 ng/mL
- AUC(0-t) [3, 10]: 4050 ± 1240 ng·h/mL
- half-life [3, 10]: 59.7 ± 9.2 h
- AUC(0-t) ([3]; male, 300 mg, single 300 mg): 4430 ± 996 ng·h/mL
- half-life ([3]; male, 300 mg, single 300 mg): 63.4 ± 3 h
